Eleven compounds from patent publication US20090105292A9, “Glucocorticoid Receptor Modulator Compounds and Methods” (LIGAND PHARMACEUTICALS INCORPORATED, priority 2004, published 2009) can be followed below.

This assay deals with T1, human glucocorticoid receptor protein (GR) (Homo sapiens, UniProt P04150).
T1 construct: made in house; host or cells: Spodoptera frugiperda Sf21 insect cells (baculovirus)
T1 sequence (P04150 1-777): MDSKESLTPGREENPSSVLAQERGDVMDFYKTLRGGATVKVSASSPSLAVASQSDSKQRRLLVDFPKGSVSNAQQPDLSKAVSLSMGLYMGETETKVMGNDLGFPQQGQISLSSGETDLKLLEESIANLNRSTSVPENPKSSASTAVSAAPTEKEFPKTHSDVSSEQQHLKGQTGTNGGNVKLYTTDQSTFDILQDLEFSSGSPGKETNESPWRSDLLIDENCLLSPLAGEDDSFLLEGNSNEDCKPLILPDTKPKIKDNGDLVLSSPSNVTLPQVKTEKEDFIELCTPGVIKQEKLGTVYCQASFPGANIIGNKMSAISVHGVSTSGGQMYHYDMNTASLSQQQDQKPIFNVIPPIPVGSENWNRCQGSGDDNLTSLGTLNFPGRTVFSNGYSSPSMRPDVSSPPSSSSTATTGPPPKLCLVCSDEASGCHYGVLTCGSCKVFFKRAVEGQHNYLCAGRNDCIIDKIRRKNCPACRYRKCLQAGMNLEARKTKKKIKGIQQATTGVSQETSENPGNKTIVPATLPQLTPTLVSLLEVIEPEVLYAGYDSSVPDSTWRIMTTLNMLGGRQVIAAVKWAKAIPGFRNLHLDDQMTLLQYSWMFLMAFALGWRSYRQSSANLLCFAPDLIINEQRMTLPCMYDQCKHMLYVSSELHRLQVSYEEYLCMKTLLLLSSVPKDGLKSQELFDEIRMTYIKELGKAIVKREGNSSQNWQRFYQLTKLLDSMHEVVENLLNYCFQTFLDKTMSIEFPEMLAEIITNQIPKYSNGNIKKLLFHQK
The assay can be described thus: Glucocorticoid receptor binding assay ([3H]dexamethasone competition, GR lysate). Here is the method:
A baculovirus expression plasmid containing cDNA encoding the human glucocorticoid receptor protein (GR) was prepared using standard techniques. […] That expression plasmid was co-transfected together with wild type Autographa californica multiple nuclear polyhedrosis virus DNA into Spodopter frugiperda-21 (Sf-21) cells to generate recombinant virus containing GR cDNA. See e.g., O'Reilly, D. R., Miller, L. K., Luckow, V. A., Regulation of expression of a baculovirus ecdysteroid UDP glucosyltransferase gene. […] That recombinant virus containing GR cDNA was collected.
A suspension culture of uninfected Sf21 cells was grown to a density of 1.2×10^6 cells/ml and then infected with the recombinant virus containing GR cDNA at a multiplicity of infection of 2. Those infected Sf21 cells were incubated for 48 hours and then collected by centrifugation at 1000×g for 10 minutes at 4° C. The resulting cell pellets were resuspended in lysis buffer (50 mM Potassium Phosphate buffer, pH 7.0, 10 mM Monothioglycerol, 5 mM DTT, 20 mM Sodium Molybdate, 1 mM PMSF, 1 μg/mL aprotinin, and 10 μg/mL leupeptin) and incubated for 15 minutes on ice. Those resuspended cell pellets were homogenized using a Dounce homogenizer and a B pestle. A volume of 2 M KCl was added to the homogenized cell pellets to a final concentration of 0.4 M. The resulting GR lysates were centrifuged at 100,000×g for 60 min at 4° C. and stored for use in binding assays.
Binding assay samples were prepared in separate mini-tubes in a 96-well format at 4° C. Each binding assay sample was prepared in a volume of 250 μL of Assay Buffer (10% glycerol, 25 mM sodium phosphate, 10 mM potassium fluoride, 10 mM sodium molybdate, 0.25 mM CHAPS, 2 mM DTT and 1 mM EDTA, (adjusted to pH 7.5)) containing 50 μg of GR lysate; 2-4 nM of [^3H]dexamethasone at 84 Ci/mmol; and either a reference compound or a test compound. […] Each reference compound and test compound was assayed at varying concentrations, ranging from 0 to 10^−5 M. Each concentration of each reference compound and each test compound was assayed in triplicate. The assay samples were incubated for 16 hours at 4° C.
The assay samples were then centrifuged and the supernatants were discarded. The resulting pellets were washed twice with assay buffer lacking DTT. Radioactivity in counts per minute (CPM) of each washed pellet was determined by liquid scintillation counter (MicroBeta™, Wallach).
Specific binding for a particular sample was calculated using the equation: (Sample CPM)−(Average Non-specific CPM)
Average Non-specific CPM was defined as the amount of radioactivity from samples containing an excess (i.e. 1000 nM) of unlabeled dexamethasone. […] Ki values were determined using the Cheng-Prusoff equation using a previously determined Kd value for dexamethasone: Ki=IC50/(1+[L]/Kd)
[L]=concentration of labeled dexamethasone
Kd=dissociation constant of labeled dexamethasone

Where [1] appears, read: competition with 2-4 nM [3H]dexamethasone, 16 hours at 4° C., Cheng-Prusoff, read-out: Ki.

Where two headings read alike, the source gives them in different places.

Regarding `COc1c(O)ccc2c1-c1ccc3c(c1/C(=C/c1sccc1C(C)O)O2)C(C)=CC(C)(C)N3` (racemic) [Compound 171, (±)-(Z)-5-(2′-(3′-(1″-Hydroxyethyl)thienylmethylidene))1,2-dihydro-9-hydroxy-10-methoxy-2,2,4-trimethyl-5H-chromeno[3,4-f]quinoline], the inhibitory constant (Ki) under setting [1] was in the range of 1 to 2 nM.

`COc1c(O)ccc2c1-c1ccc3c(c1/C(=C/c1sccc1C(O)C(F)(F)F)O2)C(C)=CC(C)(C)N3` (racemic) [Compound 202, (±)-(Z)-5-(2′-(3′-(1″-Hydroxy-2″,2″,2″-trifluoroethyl)thienylmethylidene))1,2-dihydro-9-hydroxy-10-methoxy-2,2,4-trimethyl-5H-chromeno[3,4-f]quinoline]: the inhibition constant (Ki) under setting [1] fell in the range of 1 to 2 nM.

Turning to `C=CCC(O)c1ccsc1C=C1Oc2ccc(O)c(OC)c2-c2ccc3c(c21)C(C)=CC(C)(C)N3` (single isomer, unassigned; (+)) [Compound 200, (+)-(Z)-5-(2′-(3′-(1″-Hydroxybut-3″-enyl)thienylmethylidene))1,2-dihydro-9-hydroxy-10-methoxy-2,2,4-trimethyl-5H-chromeno[3,4-f]quinoline], the inhibition constant (Ki) under setting [1] lay within 1 to 2 nM.

With `C=CCC(O)c1ccsc1C=C1Oc2ccc(O)c(OC)c2-c2ccc3c(c21)C(C)=CC(C)(C)N3` (single isomer, unassigned; (-)) [Compound 201, (−)-(Z)-5-(2′-(3′-(1″-Hydroxybut-3″-enyl)thienylmethylidene))1,2-dihydro-9-hydroxy-10-methoxy-2,2,4-trimethyl-5H-chromeno[3,4-f]quinoline], the inhibition constant (Ki) under setting [1] lay within 1 to 2 nM.

The compound `COc1c(O)ccc2c1-c1ccc3c(c1/C(=C/c1cccc(C(F)(F)F)c1)O2)C(C)=CC(C)(C)N3` [Compound 11, (Z)-5-(3′-trifluoromethylbenzylidene)-1,2-dihydro-9-hydroxy-10-methoxy-2,2,4-trimethyl-5H-chromeno[3,4-f]quinoline] displayed an inhibition constant (Ki) of 1 to 2 nM.

`COc1c(O)ccc2c1-c1ccc3c(c1/C(=C/c1ccccc1F)O2)C(C)=CC(C)(C)N3` [Compound 12, (Z)-5-(2′-fluorobenzylidene)-1,2-dihydro-9-hydroxy-10-methoxy-2,2,4-trimethyl-5H-chromeno[3,4-f]quinoline] yielded a Ki of under 1 nM.

`COc1c(O)ccc2c1-c1ccc3c(c1/C(=C/c1cc(Cl)ccc1Cl)O2)C(C)=CC(C)(C)N3` [Compound 14, (Z)-5-(2′,5′-dichlorobenzylidene)-1,2-dihydro-9-hydroxy-10-methoxy-2,2,4-trimethyl-5H-chromeno[3,4-f]quinoline]: the Ki under setting [1] was 2 to 3 nM.

`COc1cccc(/C=C2\Oc3ccc(O)c(OC)c3-c3ccc4c(c32)C(C)=CC(C)(C)N4)c1` [Compound 15, (Z)-5-(3′-methoxybenzylidene)-1,2-dihydro-9-hydroxy-10-methoxy-2,2,4-trimethyl-5H-chromeno[3,4-f]quinoline]: under setting [1], the Ki is under 1 nM.

`COc1c(O)ccc2c1-c1ccc3c(c1/C(=C/c1cccc(OC(F)(F)F)c1)O2)C(C)=CC(C)(C)N3` [Compound 22, (Z)-5-(3′-trifluoromethoxybenzylidene)-1,2-dihydro-9-hydroxy-10-methoxy-2,2,4-trimethyl-5H-chromeno[3,4-f]quinoline] yielded an inhibitory constant (Ki) of over 3 nM.

As to `COc1c(O)ccc2c1-c1ccc3c(c1/C(=C/c1cccc(C(F)(F)F)c1F)O2)C(C)=CC(C)(C)N3` [Compound 29, (Z)-5-(2′-fluoro-3′-trifluoromethylbenzylidene)-1,2-dihydro-9-hydroxy-10-methoxy-2,2,4-trimethyl-5H-chromeno[3,4-f]quinoline], under setting [1], the Ki is 2 to 3 nM.

Regarding `COc1c(O)ccc2c1-c1ccc3c(c1/C(=C/c1cc(F)ccc1C)O2)C(C)=CC(C)(C)N3` [Compound 37, (Z)-5-(5′-fluoro-2′-methylbenzylidene)-1,2-dihydro-9-hydroxy-10-methoxy-2,2,4-trimethyl-5H-chromeno[3,4-f]quinoline], the Ki under setting [1] is under 1 nM.
